Calls of active or inactive are those of the source. How the calls were made is not given here.
Tested on: GENE-TOX genotoxicity assays, various organisms and cells
Test: GENE-TOX mutagenicity studies
Conditions: for call: Assay Type: In vivo carcinogenicity studies
[1] = Species/Cell Type: Chinese hamster lung (V79) cells, Assay Type: Forward gene mutation at the HPRT or ouabain locus, Assay Code: V79-, Evaluation Type: Evaluation A (Pre-1980)
[2] = Species/Cell Type: Human lymphocytes, Assay Type: Sister-chromatid exchange (SCE) in vitro, Assay Code: SCL+D, Dose Response: With dose response, Evaluation Type: Evaluation B (Post-1980)
[3] = Species/Cell Type: Human, Assay Type: Sister-chromatid exchange (SCE) in vitro, Assay Code: SC1+D, Dose Response: With dose response, Evaluation Type: Evaluation B (Post-1980)
[4] = Species/Cell Type: Mammalian polychromatic erythrocytes, Assay Type: Micronucleus test, chromosome aberrations, Assay Code: MNT+, Evaluation Type: Evaluation B (Post-1980)
[5] = Species/Cell Type: Salmonella typhimurium (one or more of the five standard strains: TA98, TA100, TA1535, TA1537, and TA1538), Assay Type: Histidine reverse gene mutation, Ames assay, Assay Code: SAL+*, Activation: With metabolic activation, Evaluation Type: Evaluation A (Pre-1980)
[6] = Species/Cell Type: Salmonella typhimurium (one or more of the five standard strains: TA98, TA100, TA1535, TA1537, and TA1538), Assay Type: Histidine reverse gene mutation, Ames assay, Assay Code: SAL+, Evaluation Type: Evaluation A (Pre-1980)
[7] = Species/Cell Type: Nonhuman, Assay Code: CCG+, Evaluation Type: Evaluation A (Pre-1980)
[8] = Species/Cell Type: Salmonella typhimurium (one or more of the five standard strains: TA98, TA100, TA1535, TA1537, and TA1538), Assay Type: Histidine reverse gene mutation, Ames assay, Assay Code: SALT, Evaluation Type: Evaluation A (Pre-1980)
[9] = Species/Cell Type: Escherichia coli polA (W3119 vs P3478), Assay Type: Rec-assay, DNA effects (bacterial DNA repair), Assay Code: RE1T, Evaluation Type: Evaluation A (Pre-1980)
[10] = Species/Cell Type: Saccharomyces cerevisiae, Assay Type: Mitotic recombination or gene conversion, Assay Code: YEH-, Evaluation Type: Evaluation A (Pre-1980)
[11] = Species/Cell Type: Salmonella typhimurium (one or more of the five standard strains: TA98, TA100, TA1535, TA1537, and TA1538), Assay Type: Histidine reverse gene mutation, Ames assay, Assay Code: SAL-, Evaluation Type: Evaluation A (Pre-1980)
[12] = Species/Cell Type: Allium cepa, Assay Type: Chromosome aberrations, Assay Code: ALC+, Evaluation Type: Evaluation A (Pre-1980)
[13] = Species/Cell Type: Bacillus subtilis (H17 vs M45), Assay Type: Rec-assay, spot test, DNA effects (bacterial DNA repair), Assay Code: REW+, Evaluation Type: Evaluation A (Pre-1980)
[14] = Species/Cell Type: Mammalian polychromatic erythrocytes, Assay Type: Micronucleus test, chromosome aberrations, Assay Code: MNTT, Evaluation Type: Evaluation A (Pre-1980)
[15] = Species/Cell Type: Nonhuman, Assay Type: Sister-chromatid exchange (SCE) in vitro, Assay Code: SC2+D, Dose Response: With dose response, Evaluation Type: Evaluation B (Post-1980)

## C=Cc1ccccc1
[1]
  mutagenic call: inactive; negative
Species/Cell Type: Drosophila melanogaster, Assay Type: Sex-linked recessive lethal gene mutation, Assay Code: SRL+, Evaluation Type: Evaluation A (Pre-1980)
  mutagenic call: active; positive
Species/Cell Type: Human diploid fibroblasts, Assay Type: Unscheduled DNA synthesis (UDS) in vitro, DNA effects, Assay Code: UDH-*, Activation: With metabolic activation, Evaluation Type: Evaluation A (Pre-1980)
  mutagenic call: inactive; negative
Species/Cell Type: Human lymphocytes or leukocytes, Assay Type: Chromosome aberrations in vivo, Assay Code: CY8+, Evaluation Type: Evaluation A (Pre-1980)
  mutagenic call: active; positive
Species/Cell Type: Human lymphocytes, Assay Type: Micronucleus test in vitro, chromosome aberrations, Assay Code: MN7+, Evaluation Type: Evaluation A (Pre-1980)
  mutagenic call: active; positive
[2]
  mutagenic call: active; positive
Species/Cell Type: Human lymphocytes, Assay Type: Sister-chromatid exchange (SCE) in vivo, Assay Code: SCY+, Evaluation Type: Evaluation B (Post-1980)
  mutagenic call: active; positive
[3]
  mutagenic call: active; positive
[4]
  mutagenic call: active; positive
Species/Cell Type: Nonhuman, Assay Code: CCG+L, Evaluation Type: Evaluation A (Pre-1980)
  call: active; positive
Species/Cell Type: Nonhuman, Assay Type: Sister-chromatid exchange (SCE) in vivo, Assay Code: SC3+D, Dose Response: With dose response, Evaluation Type: Evaluation B (Post-1980)
  mutagenic call: active; positive
Species/Cell Type: Plant, Assay Type: Micronucleus test, chromosome aberrations, Assay Code: MNP+, Evaluation Type: Evaluation A (Pre-1980)
  mutagenic call: active; positive
Species/Cell Type: Saccharomyces cerevisiae, Assay Type: Forward and reverse gene mutation, mitotic recombination and gene conversion, host-mediated assay, Assay Code: HME+, Evaluation Type: Evaluation A (Pre-1980)
  mutagenic call: active; positive
Species/Cell Type: Saccharomyces cerevisiae, Assay Type: Mitotic recombination or gene conversion, Assay Code: YEC+*, Activation: With metabolic activation, Evaluation Type: Evaluation A (Pre-1980)
  mutagenic call: active; positive
[5]
  mutagenic call: active; positive
Species/Cell Type: Schizosaccharomyces pombe, Assay Type: Forward gene mutation, Assay Code: YEYT, Evaluation Type: Evaluation A (Pre-1980)
  mutagenic call: no conclusion
Species/Cell Type: Syrian hamster embryo (SA7/SHE) cells, Assay Type: Cell transformation, viral enhanced, Assay Code: CT7-, Evaluation Type: Evaluation A (Pre-1980)
  mutagenic call: inactive; negative

## CC(=O)Nc1nc(NC(C)=O)nc(-c2ccc([N+](=O)[O-])o2)n1
[6]
  mutagenic call: active; positive

## Nc1ccc(Cl)c(N)c1
[7]
  call: active; positive

## NC(=O)N(CC(=O)O)N=O
[8]
  mutagenic call: no conclusion

## CCCCCCCCCCCCCC(=O)O[C@@H]1[C@@H](C)[C@@]2(O)[C@@H](C=C(CO)C[C@]3(O)C(=O)C(C)=C[C@@H]23)[C@@H]2C(C)(C)[C@]12OC(C)=O
[1]
  mutagenic call: inactive; negative
[9]
  mutagenic call: no conclusion
Species/Cell Type: Fischer rat embryo (RLV/1706) cells, Assay Type: Cell transformation, viral enhanced, Assay Code: CTR-, Evaluation Type: Evaluation A (Pre-1980)
  mutagenic call: inactive; negative
Species/Cell Type: Human, Assay Type: Sister-chromatid exchange (SCE) in vitro, Assay Code: SC1+, Evaluation Type: Evaluation B (Post-1980)
  mutagenic call: active; positive
Species/Cell Type: Mouse (C3H/10T1/2) cells, Assay Type: Cell transformation, Assay Code: CTH-, Evaluation Type: Evaluation A (Pre-1980)
  mutagenic call: inactive; negative
Species/Cell Type: Nonhuman, Assay Type: Sister-chromatid exchange (SCE) in vitro, Assay Code: SC2+, Evaluation Type: Evaluation A (Pre-1980)
  mutagenic call: active; positive
Species/Cell Type: Nonhuman, Assay Type: Sister-chromatid exchange (SCE) in vitro, Assay Code: SC2T, Evaluation Type: Evaluation B (Post-1980)
  mutagenic call: no conclusion
[10]
  mutagenic call: inactive; negative
[11]
  mutagenic call: inactive; negative
Species/Cell Type: Syrian hamster embryo (SHE) cells, Assay Type: Cell transformation, clonal assay, Assay Code: CTC-, Evaluation Type: Evaluation A (Pre-1980)
  mutagenic call: inactive; negative

## Clc1ccc(Cl)cc1
[12]
  mutagenic call: active; positive
[4]
  mutagenic call: active; positive

## CN=C1C=CC(=C(c2ccc(N(C)C)cc2)c2ccc(N(C)C)cc2)C=C1
[13]
  mutagenic call: active; positive
Species/Cell Type: Bacillus subtilis (H17 vs M45T), Assay Type: Rec-assay, spot test, DNA effects (bacterial DNA repair), Assay Code: REXT, Evaluation Type: Evaluation A (Pre-1980)
  mutagenic call: no conclusion

## CNC[C@H](O)c1ccc(O)c(O)c1
[14]
  mutagenic call: no conclusion
Species/Cell Type: Mouse, Sex: Male, Assay Type: Sperm morphology, Assay Code: SPI-, Evaluation Type: Evaluation A (Pre-1980)
  mutagenic call: inactive; negative

## CN(C)CCc1c[nH]c2cccc(OP(=O)(O)O)c12
[14]
  mutagenic call: no conclusion

## Cc1cc2ccccc2c2ccc3ccc(F)cc3c12
[8]
  mutagenic call: no conclusion

## O=C1NCCN1c1ncc([N+](=O)[O-])s1
Species/Cell Type: Escherichia coli WP2, Assay Type: Tryptophan reverse gene mutation, Assay Code: WP2+D, Dose Response: With dose response, Evaluation Type: Evaluation A (Pre-1980)
  mutagenic call: active; positive
Species/Cell Type: Escherichia coli WP2 UVRA, Assay Type: Tryptophan reverse gene mutation, Assay Code: WPU+D, Dose Response: With dose response, Evaluation Type: Evaluation A (Pre-1980)
  mutagenic call: active; positive
Species/Cell Type: Human, Sex: Male, Assay Type: Sperm morphology, Assay Code: SPH-, Evaluation Type: Evaluation A (Pre-1980)
  mutagenic call: inactive; negative
Species/Cell Type: Neurospora crassa, Assay Type: Forward gene mutation, Assay Code: NEF+, Evaluation Type: Evaluation A (Pre-1980)
  mutagenic call: active; positive
[7]
  call: active; positive
Species/Cell Type: Saccharomyces cerevisiae, Assay Type: Mitotic recombination or gene conversion, Assay Code: YEH+, Evaluation Type: Evaluation A (Pre-1980)
  mutagenic call: active; positive
[6]
  mutagenic call: active; positive

## CC(=O)Nc1ccc(/C=C/c2ccccc2)cc1
Species/Cell Type: Human diploid fibroblasts, Assay Type: Unscheduled DNA synthesis (UDS) in vitro, DNA effects, Assay Code: UDH-, Evaluation Type: Evaluation A (Pre-1980)
  mutagenic call: inactive; negative
[5]
  mutagenic call: active; positive

## Clc1ccc(Br)cc1
[10]
  mutagenic call: inactive; negative
[11]
  mutagenic call: inactive; negative

## CCCCNC(=O)OCC
Species/Cell Type: Nonhuman, Assay Code: CCGT, Evaluation Type: Evaluation A (Pre-1980)
  call: no conclusion
Species/Cell Type: Nonhuman, Assay Type: Sister-chromatid exchange (SCE) in vitro, Assay Code: SC2-, Evaluation Type: Evaluation A (Pre-1980)
  mutagenic call: inactive; negative

## [Cl][Hg][Cl]
[13]
  mutagenic call: active; positive
[2]
  mutagenic call: active; positive
[3]
  mutagenic call: active; positive
Species/Cell Type: Neurospora crassa, Assay Type: Aneuploidy, chromosome aberrations, Assay Code: NEN-, Evaluation Type: Evaluation A (Pre-1980)
  mutagenic call: inactive; negative
Species/Cell Type: Nonhuman, Assay Type: Sister-chromatid exchange (SCE) in vitro, Assay Code: SC2+, Evaluation Type: Evaluation B (Post-1980)
  mutagenic call: active; positive
Species/Cell Type: Nonhuman, Assay Type: Sister-chromatid exchange (SCE) in vitro, Assay Code: SC2-, Evaluation Type: Evaluation B (Post-1980)
  mutagenic call: inactive; negative
Species/Cell Type: Syrian hamster embryo (SA7/SHE) cells, Assay Type: Cell transformation, viral enhanced, Assay Code: CT7+, Evaluation Type: Evaluation A (Pre-1980)
  mutagenic call: active; positive

## NCCS
[9]
  mutagenic call: no conclusion
Species/Cell Type: Human lymphocytes, Assay Type: Sister-chromatid exchange (SCE) in vitro, Assay Code: SCLT, Evaluation Type: Evaluation B (Post-1980)
  mutagenic call: no conclusion
Species/Cell Type: Human, Assay Type: Sister-chromatid exchange (SCE) in vitro, Assay Code: SC1T, Evaluation Type: Evaluation B (Post-1980)
  mutagenic call: no conclusion
Species/Cell Type: Neurospora crassa, Assay Type: Reverse gene mutation, Assay Code: NER-, Evaluation Type: Evaluation A (Pre-1980)
  mutagenic call: inactive; negative
[15]
  mutagenic call: active; positive
[8]
  mutagenic call: no conclusion

## C[n+]1ccc(-c2cc[n+](C)cc2)cc1
[12]
  mutagenic call: active; positive
Species/Cell Type: Hordeum vulgare (barley), Assay Type: Chromosome aberrations, Assay Code: HOC+, Evaluation Type: Evaluation A (Pre-1980)
  mutagenic call: active; positive
[15]
  mutagenic call: active; positive
Species/Cell Type: Rodents, Sex: Male, Assay Type: Dominant lethal test, Assay Code: DLT-, Evaluation Type: Evaluation A (Pre-1980)
  mutagenic call: inactive; negative
Species/Cell Type: Saccharomyces cerevisiae, Assay Type: Mitotic recombination or gene conversion, Assay Code: YEC+, Evaluation Type: Evaluation A (Pre-1980)
  mutagenic call: active; positive
Species/Cell Type: Vicia faba, Assay Type: Chromosome aberrations, Assay Code: VIC-, Evaluation Type: Evaluation A (Pre-1980)
  mutagenic call: inactive; negative

From PubChem BioAssay AID1259408 (Genetic Toxicology Data Bank (GENE-TOX), 2018)
